Experimental data reported in patent publication US9951079B2, “Fused tricyclic heterocyclic compounds as HIV integrase inhibitors” (MERCK SHARP & DOHME CORP., priority 2013, dated 2018).
Read-outs that look alike come from different tables or passages of the source.

System: HIV-1 (NL4-3 strain)
Test: Assay for inhibition of HIV replication (MT4-gag-GFP reporter cell line, kinetic assay)
Assay type: cell-based
Method: This assay is a kinetic assay that employs a reporter cell line (MT4-gag-GFP) to quantify the number of new cells infected in each round of replication.
MT4-GFP cells (250,000 cells/ml) were bulk-infected with HIV-1 (NL4-3 strain) at low multiplicity of infection (MOI) in RPMI+10% FBS for 24 hours. Cells were then washed once in RPMI+10% FBS and resuspended in RPMI+0% or 10% or 100% normal human serum (NHS). Test compounds were serial-diluted in DMSO on ECHO. The infected MT4-GFP cells were added to a 384-well poly-D-lysine coated black plate with clear bottom in which the diluted test compounds were placed. The cells were seeded at 8,000 cells per well and the final DMSO concentration was 0.4%. The infected cells (Green GFP cells) were quantified at both 24 and 48 hours post incubation using Acumen eX3. Viral reproductive ratio (R0) was determined using the number of infected cells at 48 hours divided by the number of infected cells at 24 hours. Percent viral growth inhibition was calculated by [1−(R−Rtripledrug)/(RDMSO−Rtripledrug)]*100. Compound potency IP or IC50 was determined by a 4-parameter dose response curve analysis.

[1] = Human immunodeficiency virus 1, NL43, Table A, infected MT4-GFP cells, RPMI + 0% normal human serum, IP from 4-parameter dose response curve, read-out: Wild Type Cell Assay IP (0% NHS)
[2] = Human immunodeficiency virus 1, NL43, Table B (selected enantiomeric compounds), 0% normal human serum, read-out: Wild Type Cell Assay IP (0% NHS)
[3] = Table A, infected MT4-GFP cells, RPMI + 10% normal human serum, read-out: Wild Type Cell Assay IP (10% NHS)
[4] = Table B (selected enantiomeric compounds), 0% normal human serum, read-out: Wild Type Cell Assay IP (0% NHS)
[5] = Table B (selected enantiomeric compounds), 100% normal human serum, read-out: Wild Type Cell Assay IP (100% NHS)
[6] = Human immunodeficiency virus 1, NL43, Table A, infected MT4-GFP cells, RPMI + 10% normal human serum, read-out: Wild Type Cell Assay IP (10% NHS)

Compound | IC50 [1] [nM] | IC50 [6] [nM] | other results
CCN1C(=O)c2c(O)c(=O)c(-c3cn(Cc4ccc(F)cc4F)nn3)cn2C2COC[C@@H]21 (single isomer, unassigned) [Compound 16] | 38 | – | IC50 [2]: 38 nM; IC50 (Human immunodeficiency virus 1, NL43, Table B (selected enantiomeric compounds), 100% normal human serum, read-out: Wild Type Cell Assay IP (100% NHS)): 2700 nM
CCN1C(=O)c2c(O)c(=O)c(C(=O)NCc3ccc(F)cc3F)cn2C2COC[C@@H]21 (single isomer, unassigned) [Compound 10, cis-N-(2,4-difluorobenzyl)-4-ethyl-6-hydroxy-5,7-dioxo-3,3a,4,5,7,10a-hexahydro-1H-furo[3,4-e]pyrido[1,2-a]pyrazine-8-carboxamide] | 4 | – | IC50 [3]: 8 nM; IC50 [4]: 80 nM; IC50 [5]: 71 nM
CC(C)N1C(=O)c2c(O)c(=O)c(C(=O)NCc3ccc(F)cc3F)cn2C2COC[C@@H]21 (mixture of isomers) [Compound 12] | 3 | 62 | –
CCN1C(=O)c2c(O)c(=O)c(-c3nnc(Cc4ccc(F)cc4)s3)cn2C2COC[C@@H]21 (mixture of isomers) [Compound 7] | 36 | 74 | –
O=C1N[C@@H]2COC[C@H]2n2cc(-c3nnc(Cc4ccc(F)cc4F)s3)c(=O)c(O)c21 (relative stereo) [Compound 2, trans-8-(5-(2,4-difluorobenzyl)-1,3,4-thiadiazol-2-yl)-6-hydroxy-3a,4-dihydro-1H-furo[3,4-e]pyrido[1,2-a]pyrazine-5,7(3H,10aH)-dione] | – | 385 | –
CCCN1C(=O)c2c(O)c(=O)c(-c3nnc(Cc4ccc(F)cc4)s3)cn2C2COC[C@@H]21 (mixture of isomers) [Compound 9] | 10 | 32 | –
CCN1C(=O)c2c(O)c(=O)c(-c3nnc(Cc4ccc(F)cc4F)s3)cn2C2COC[C@@H]21 (single isomer, unassigned) [Compound 5, cis-8-(5-(2,4-difluorobenzyl)-1,3,4-thiadiazol-2-yl)-4-ethyl-6-hydroxy-3a,4-dihydro-1H-furo[3,4-e]pyrido[1,2-a]pyrazine-5,7(3H,10aH)-dione] | 9 | – | IC50 [3]: 561 nM; IC50 [5]: 5700 nM
CCN1C(=O)c2c(O)c(=O)c(C(=O)NCc3ccc(F)cc3F)cn2C2COC[C@H]21 (stereo partly shown) [Compound 13] | – | 21 | –
CCN1C(=O)c2c(O)c(=O)c(-c3nnc(Cc4ccc(F)cc4F)s3)cn2[C@@H]2COC[C@H]21 (relative stereo) [Compound 3, trans-8-(5-(2,4-difluorobenzyl)-1,3,4-thiadiazol-2-yl)-4-ethyl-6-hydroxy-3a,4-dihydro-1H-furo[3,4-e]pyrido[1,2-a]pyrazine-5,7(3H,10aH)-dione] | – | 58 | –
CCN1C(=O)c2c(O)c(=O)c(-c3cnn(Cc4ccc(F)cc4F)c3)cn2[C@@H]2COC[C@@H]21 (relative stereo) [Compound 14, cis-8-(1-(2,4-difluorobenzyl)-1H-pyrazol-4-yl)-4-ethyl-6-hydroxy-3a,4-dihydro-1H-furo[3,4-e]pyrido[1,2-a]pyrazine-5,7(3H,10aH)-dione] | 51 | 252 | –
CCN1C(=O)c2c(O)c(=O)c(-c3cn(Cc4ccc(F)cc4F)nn3)cn2[C@@H]2COC[C@@H]21 (single isomer, unassigned) [Compound 15, cis-8-(1-(2,4-Difluorobenzyl)-1H-1,2,3-triazol-4-yl)-4-ethyl-6-hydroxy-3a,4-dihydro-1H-furo[3,4-e]pyrido[1,2-a]pyrazine-5,7(3H,10aH)-dione] | 80 | – | –
CCN1C(=O)c2c(O)c(=O)c(-c3nnc(Cc4ccc(F)cc4F)s3)cn2C2COC[C@@H]21 (single isomer, unassigned) [Compound 4, cis-8-(5-(2,4-difluorobenzyl)-1,3,4-thiadiazol-2-yl)-4-ethyl-6-hydroxy-3a,4-dihydro-1H-furo[3,4-e]pyrido[1,2-a]pyrazine-5,7(3H,10aH)-dione] | – | – | IC50 [2]: 8 nM; IC50 [3]: 17 nM; IC50 [5]: 190 nM
CCC(c1nnc(-c2cn3c(c(O)c2=O)C(=O)N(CC)[C@H]2COCC23)s1)c1ccc(F)cc1F (mixture of isomers) [Compound 6] | 31 | 67 | –
O=C1N[C@H]2COCC2n2cc(-c3nnc(Cc4ccc(F)cc4F)s3)c(=O)c(O)c21 (stereo in doubt) [Compound 1, cis-8-(5-(2,4-difluorobenzyl)-1,3,4-thiadiazol-2-yl)-6-hydroxy-3a,4-dihydro-1H-furo[3,4-e]pyrido[1,2-a]pyrazine-5,7(3H,10aH)-dione] | – | 400 | –
CCN1C(=O)c2c(O)c(=O)c(C(=O)NCc3ccc(F)cc3F)cn2C2COC[C@@H]21 (single isomer, unassigned) [Compound 11, cis-N-(2,4-difluorobenzyl)-4-ethyl-6-hydroxy-5,7-dioxo-3,3a,4,5,7,10a-hexahydro-1H-furo[3,4-e]pyrido[1,2-a]pyrazine-8-carboxamide] | – | – | IC50 (Table A, infected MT4-GFP cells, RPMI + 0% normal human serum, IP from 4-parameter dose response curve, read-out: Wild Type Cell Assay IP (0% NHS)): 6 nM; IC50 [3]: 148 nM; IC50 [4]: 38 nM; IC50 [5]: 2800 nM
COCCN1C(=O)c2c(O)c(=O)c(-c3nnc(Cc4ccc(F)cc4F)s3)cn2C2COC[C@@H]21 (mixture of isomers) [Compound 8] | 6 | 13 | –
